Values of other authors in patent publication US10391176B2, “Composition, its preparation and method of use in treating skin disorders” (priority 2016, dated 2019).

solubility in acetone (acetone): freely soluble
solubility in dimethylsulfoxide (dimethylsulfoxide): freely soluble
solubility in methanol (methanol): slightly soluble
solubility in tetrahydrofuran (tetrahydrofuran): freely soluble
solubility in water (water): practically insoluble
Structure (SMILES): COc1cc(C(=O)NS(=O)(=O)c2ccccc2C)ccc1Cc1cn(C)c2ccc(NC(=O)OC3CCCC3)cc12 [Zafirlukast, 4-(5-cyclopentyloxy-carbonylamino-1-methyl-indol-3-ylmethyl)-3-methoxy-N-o-tolylsulfonylbenzamide]
